In ChEMBL document CHEMBL1134347, “Structure-activity studies of substituted quinoxalinones as multiple-drug-resistance antagonists” (J Med Chem, 2001):

Columns and labels:
MCF7 [1] = test: Cytotoxicity against MCF-7 breast carcinoma cells at 10 ug/mL; type: functional, cell-based; conditions: Homo sapiens
[2] = target: Multidrug resistance-associated protein 1 (Homo sapiens, UniProt P33527); test: The MRP1 antagonism score is the percentage of MCF-7/VP cells surviving in the absence of vincristine to that of in the presence of vincristine.; type: functional
MCF7 [3] = type: functional, Homo sapiens

Sequence of Multidrug resistance-associated protein 1 (P33527 whole entry): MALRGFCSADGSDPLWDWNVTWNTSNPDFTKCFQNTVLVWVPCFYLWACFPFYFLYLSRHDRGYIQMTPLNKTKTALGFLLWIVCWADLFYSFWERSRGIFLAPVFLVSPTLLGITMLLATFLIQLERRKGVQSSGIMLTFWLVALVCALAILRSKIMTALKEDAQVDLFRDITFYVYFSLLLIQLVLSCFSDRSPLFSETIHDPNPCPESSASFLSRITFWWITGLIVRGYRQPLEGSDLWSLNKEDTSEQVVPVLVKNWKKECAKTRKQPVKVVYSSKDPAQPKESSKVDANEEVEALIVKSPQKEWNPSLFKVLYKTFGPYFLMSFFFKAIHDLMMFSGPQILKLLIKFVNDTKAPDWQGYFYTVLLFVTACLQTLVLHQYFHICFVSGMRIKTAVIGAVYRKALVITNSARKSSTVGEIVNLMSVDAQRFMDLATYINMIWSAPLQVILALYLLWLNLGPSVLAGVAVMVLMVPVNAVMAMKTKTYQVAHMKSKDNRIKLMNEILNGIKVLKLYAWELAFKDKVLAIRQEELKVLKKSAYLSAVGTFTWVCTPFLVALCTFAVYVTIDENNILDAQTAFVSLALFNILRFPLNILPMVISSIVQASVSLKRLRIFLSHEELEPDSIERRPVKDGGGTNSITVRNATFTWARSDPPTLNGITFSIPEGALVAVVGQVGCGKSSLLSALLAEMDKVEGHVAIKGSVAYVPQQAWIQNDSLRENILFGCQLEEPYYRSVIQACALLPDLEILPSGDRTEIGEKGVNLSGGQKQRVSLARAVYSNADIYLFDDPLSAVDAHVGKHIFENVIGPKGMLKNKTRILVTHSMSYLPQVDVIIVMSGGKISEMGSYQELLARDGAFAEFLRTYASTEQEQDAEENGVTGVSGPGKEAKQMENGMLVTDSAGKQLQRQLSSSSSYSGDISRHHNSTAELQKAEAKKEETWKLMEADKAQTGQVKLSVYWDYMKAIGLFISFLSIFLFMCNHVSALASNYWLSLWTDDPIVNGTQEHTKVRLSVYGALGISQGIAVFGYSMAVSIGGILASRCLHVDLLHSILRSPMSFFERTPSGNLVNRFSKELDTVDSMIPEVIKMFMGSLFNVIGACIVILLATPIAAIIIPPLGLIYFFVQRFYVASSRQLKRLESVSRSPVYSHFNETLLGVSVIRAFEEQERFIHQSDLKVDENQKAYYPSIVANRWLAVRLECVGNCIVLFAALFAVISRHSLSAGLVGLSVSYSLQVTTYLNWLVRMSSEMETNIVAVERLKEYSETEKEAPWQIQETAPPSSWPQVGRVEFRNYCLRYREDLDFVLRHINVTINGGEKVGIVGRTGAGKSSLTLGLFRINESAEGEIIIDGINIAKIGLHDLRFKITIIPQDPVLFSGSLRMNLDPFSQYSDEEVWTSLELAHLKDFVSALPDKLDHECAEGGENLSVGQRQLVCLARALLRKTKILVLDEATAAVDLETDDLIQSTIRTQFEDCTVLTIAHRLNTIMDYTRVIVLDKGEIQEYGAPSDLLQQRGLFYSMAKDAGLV

Compound	IC50 (MCF7 [1])	Ratio [2]	Toxicity (MCF7 [3])
CCOC(=O)c1ccc(OCc2nc3ccccc3n(C)c2=O)cc1	> 74 µM	0.9	
Nc1ccc(Br)cc1-c1nc2cc3ccccc3cc2nc1O		1.3	49%
Cn1c(=O)c(COc2ccccc2)nc2ccccc21	> 94 µM	1	
Cn1c(=O)c(COc2cccnc2)nc2ccccc21	> 56 µM	1.1	
Cn1c(=O)c(COc2c(F)c(F)c(F)c(F)c2F)nc2ccccc21	> 70 µM	0.8	
Nc1ccccc1-c1nc2ccccc2nc1O		1.1	22%
Cn1c(=O)c(COc2cccc3ccccc23)nc2ccccc21	20 µM	0.9	
Cn1c(=O)c(COc2ccc(C(=O)c3ccccc3)cc2)nc2ccccc21	> 67 µM	0.9	
CN(C)c1cccc(OCc2nc3ccccc3n(C)c2=O)c1	57 µM	0.9	
Cc1nc2ccccc2nc1O	> 156 µM	1.1	
Nc1ccccc1-c1nc2cc3ccccc3cc2nc1O		1.3	37%
Cn1c(=O)c(COc2ccccc2C(=O)Nc2ccccc2)nc2ccccc21	> 32 µM	1	
Cn1c(=O)c(Cc2ccccc2)nc2ccccc21	> 100 µM	1.1	
CNc1ccc(OC)cc1-c1nc2cc3ccccc3cc2nc1O		1	25%
Cn1c(=O)c(COc2ccccc2Cc2ccccc2)nc2ccccc21	8.1 µM	1.1	
CNc1ccc(OC)cc1-c1nc2cc3ccccc3cc2n(C)c1=O		2.1	3%
COC(=O)c1ccc(OCc2nc3ccccc3n(C)c2=O)c(OC)c1	71 µM	1.1	
Cn1c(=O)c(COc2ccc(F)cc2)nc2ccccc21	26 µM	0.8	
Oc1nc2ccccc2nc1Cc1ccccc1	> 106 µM	1	
CNc1ccc(OC)cc1-c1nc2ccccc2n(C)c1=O		3.5	7%
Cn1c(=O)c(COc2ccc(C#N)cc2)nc2ccccc21	> 43 µM	0.8	
Cc1cc(OCc2nc3ccccc3n(C)c2=O)ccc1[N+](=O)[O-]	> 77 µM	1.1	
CNc1ccccc1-c1nc2cc([N+](=O)[O-])ccc2n(C)c1=O		1.1	7%
Cc1nc2ccccc2n(C)c1=O	> 144 µM	0.7	
Cn1c(=O)c(COc2ccc(-c3ccccc3)cc2)nc2ccccc21	30 µM	0.7	
Cn1c(=O)c(COc2cccc(Nc3ccccc3)c2)nc2ccccc21	25 µM	0.9	
COc1ccc(CCN(C)CCCC(C#N)(c2ccc(OC)c(OC)c2)C(C)C)cc1OC (stereo not drawn)	> 51 µM		
